Starred links: 1 amine or outer side, 2 acyl side, 3 side chain; linkers in the order of their positions; H or OH if unused. Positions of bridges follow the written chain, without caps; N, C: chain ends. Non-standard residues stand in square brackets, D forms with d. Residues, ends and D or L forms follow the SMILES beside them. *: point of attachment. hPhe(3-Cl-4-CF3) = N[C@@H](CCc1ccc(C(F)(F)F)c(Cl)c1)C(=O)O; NMePhe(4-Me) = CN[C@@H](Cc1ccc(C)cc1)C(=O)O; NMedβ3hAla = C[C@H](CC(=O)[*:2])N(C)[*:1]; NMeGly(cPent) = CN[C@H](C(=O)O)C1CCCC1; NMeCha = CN[C@@H](CC1CCCCC1)C(=O)O; NMeGly(cPr) = CN[C@H](C(=O)O)C1CC1; NMeCba = CN[C@@H](CC1CCC1)C(=O)O; NMeChg = CN[C@H](C(=O)O)C1CCCCC1; NMeI = CC[C@H](C)[C@H](NC)C(=O)O; NMeD = CN[C@@H](CC(=O)O)C(=O)O; NMeL = CN[C@@H](CC(C)C)C(=O)O; NMeV = CN[C@H](C(=O)O)C(C)C; d(β3hA) = C[C@@H](N)CC(=O)O; NMeAbu = CC[C@H](NC)C(=O)O; NMeS = CN[C@@H](CO)C(=O)O; NMeA = CN[C@@H](C)C(=O)O; Piperidide = C1CCN(*)CC1; Pyrrolidide = C1CCN(*)C1; dNMeA = CN[C@H](C)C(=O)O; Ac5c = NC1(C(=O)O)CCCC1; Aze = O=C(O)[C@@H]1CCN1; Aib = CC(C)(N)C(=O)O; Cyclopropyl = C1CC1*; Sar = CNCC(=O)O
What was measured:
[1] = test system: Human pancreatic cancer cell line AsPC-1; experiment: Measurement of AsPC-1 cell growth inhibition (AsPC-1 CGI); format: cell-based; settings: 96 h
Outline: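 AsPC-1 cells in 15% FBS RPMI-1640 were exposed to test compound for 96 hours at 37° C, with CellTiter-Glo as endpoint.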

[2] = molecular target: T1, Kras and SOS1 (biotin-tagged human Kras loaded with GDP, His-tagged human SOS1) (Homo sapiens, UniProt P01116, G12D); experiment: Protein-protein interaction inhibition between Kras and SOS1 (KrasGl2D-SOS PPI) using AlphaScreen; format: binding; settings: AlphaScreen; biotin-tagged human Kras loaded with GDP, His-tagged human SOS1; read-out: KRAS G12D-SOS PPI IC50
T1 construct: made in house; host or cells: E. coli (stated for Kras only)
T1 sequence (P01116 1-188 isoform P01116-2 G12D): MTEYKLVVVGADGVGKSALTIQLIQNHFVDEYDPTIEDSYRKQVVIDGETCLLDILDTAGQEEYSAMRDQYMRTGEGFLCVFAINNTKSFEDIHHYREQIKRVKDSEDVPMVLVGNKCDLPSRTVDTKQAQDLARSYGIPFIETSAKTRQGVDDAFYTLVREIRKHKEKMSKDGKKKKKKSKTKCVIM
Outline: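 Energy transfer from nickel-chelate donor beads bound to His-SOS1 to streptavidin acceptor beads bound to biotin-Kras, expressed in E. coli and loaded with GDP after purification, was monitored. Donors were excited at 680 nm; singlet oxygen reaching acceptors gave emission read at 520-620 nm.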

Row | SMILES | IC50 [1] | IC50 [2]
1 | CC[C@H](C)[C@@H]1NC(=O)[C@H](CC(C)C)N(C)C(=O)C[C@@H](C(=O)N2CCCCC2)N(C)C(=O)[C@H](C(C)C)N(C)C(=O)C(C)(C)NC(=O)[C@@H]2CCCN2C(=O)[C@H](CCc2ccc(C(F)(F)F)c(Cl)c2)NC(=O)CN(C)C(=O)[C@H](CC2CCCCC2)N(C)C(=O)[C@@H]2CCN2C(=O)[C@H](C)N(C)C1=O [Compound 1751] ([NMeL]I[NMeA][Aze][NMeCha][Sar][hPhe(3-Cl-4-CF3)]P[Aib][NMeV][NMeD]-Piperidide; lactam N-11) | 100 to 500 nM | 7.3 nM
2 | CC[C@H](C)[C@@H]1NC(=O)[C@H](CC(C)C)N(C)C(=O)C[C@@H](C(=O)N2CCCC2)N(C)C(=O)[C@H](C2CCCCC2)N(C)C(=O)C2(CCCC2)NC(=O)[C@@H]2CCCN2C(=O)[C@H](CCc2ccc(C(F)(F)F)c(Cl)c2)NC(=O)CN(C)C(=O)[C@H](CC2CCCCC2)N(C)C(=O)CN(C)C(=O)CN(C)C1=O [Compound 1757] ([NMeL]I[Sar][Sar][NMeCha][Sar][hPhe(3-Cl-4-CF3)]P[Ac5c][NMeChg][NMeD]-Pyrrolidide; lactam N-11) | 20 to 50 nM | 0.43 nM
3 | CC[C@H](C)[C@@H]1NC(=O)[C@H](CC(C)C)N(C)C(=O)C[C@@H](C(=O)N2CCCC2)N(C)C(=O)[C@H](C2CCCC2)N(C)C(=O)C2(CCCC2)NC(=O)[C@@H]2CCCN2C(=O)[C@H](CCc2ccc(C(F)(F)F)c(Cl)c2)NC(=O)CN(C)C(=O)[C@H](Cc2ccc(C)cc2)N(C)C(=O)CN(C)C(=O)CN(C)C1=O [Compound 1761] ([NMeL]I[Sar][Sar][NMePhe(4-Me)][Sar][hPhe(3-Cl-4-CF3)]P[Ac5c][NMeGly(cPent)][NMeD]-Pyrrolidide; lactam N-11) | 20 to 50 nM | 0.41 nM
4 | CC[C@H](C)[C@@H]1NC(=O)[C@H](CC(C)C)N(C)C(=O)C[C@@H](C(=O)N(C)C)N(C)C(=O)[C@H](C2CCCCC2)N(C)C(=O)C2(CCCC2)NC(=O)[C@@H]2CCCN2C(=O)[C@H](CCc2ccc(C(F)(F)F)c(Cl)c2)NC(=O)CN(C)C(=O)[C@H](Cc2ccc(C)cc2)N(C)C(=O)CN(C)C(=O)CN(C)C1=O [Compound 1762] ([NMeL]I[Sar][Sar][NMePhe(4-Me)][Sar][hPhe(3-Cl-4-CF3)]P[Ac5c][NMeChg][NMeD]-NMe2; lactam N-11) | 20 to 50 nM | 0.37 nM
5 | CC(C)C[C@H]1C(=O)N[C@@H](COC2CC2)C(=O)N(C)CC(=O)N(C)CC(=O)N(C)[C@@H](CC2CCCCC2)C(=O)N(C)CC(=O)N[C@@H](CCc2ccc(C(F)(F)F)c(Cl)c2)C(=O)N2CCC[C@H]2C(=O)NC2(CCCC2)C(=O)N(C)[C@@H](C2CCCCC2)C(=O)N(C)[C@H](C(=O)N2CCCCC2)CC(=O)N1C [Compound 1766] ([NMeL]S(Cyclopropyl)[Sar][Sar][NMeCha][Sar][hPhe(3-Cl-4-CF3)]P[Ac5c][NMeChg][NMeD]-Piperidide; lactam N-11) | 100 to 500 nM | 3.6 nM
6 | CC[C@H](C)[C@@H]1NC(=O)[C@H](CC)N(C)C(=O)C[C@@H](C(=O)N2CCCCC2)N(C)C(=O)[C@H](C2CCCCC2)N(C)C(=O)C2(CCCC2)NC(=O)[C@@H]2CCCN2C(=O)[C@H](CCc2ccc(C(F)(F)F)c(Cl)c2)NC(=O)CN(C)C(=O)[C@H](CC2CCCCC2)N(C)C(=O)CN(C)C(=O)CN(C)C1=O [Compound 1770] ([NMeAbu]I[Sar][Sar][NMeCha][Sar][hPhe(3-Cl-4-CF3)]P[Ac5c][NMeChg][NMeD]-Piperidide; lactam N-11) | 50 to 100 nM | 0.71 nM
7 | CC[C@H](C)[C@@H]1NC(=O)[C@H](CC(C)C)N(C)C(=O)C[C@@H](C)NC(=O)[C@H]([C@@H](C)CC)N(C)C(=O)C2(CCCC2)NC(=O)[C@@H]2CCCN2C(=O)[C@H](CCc2ccc(C(F)(F)F)c(Cl)c2)NC(=O)CN(C)C(=O)[C@H](Cc2ccc(C)cc2)N(C)C(=O)CN(C)C(=O)CN(C)C1=O [Compound 1774] (cyclo([Ac5c][NMeI][d(β3hA)][NMeL]I[Sar][Sar][NMePhe(4-Me)][Sar][hPhe(3-Cl-4-CF3)]P)) | 100 to 500 nM | 0.84 nM
8 | CC[C@H](C)[C@@H]1NC(=O)[C@H](C)N(C)C(=O)C[C@@H](C)N(C)C(=O)[C@H](C(C)C)N(C)C(=O)C2(CCCC2)NC(=O)[C@@H]2CCCN2C(=O)[C@H](CCc2ccc(C(F)(F)F)c(Cl)c2)NC(=O)[C@@H](C)N(C)C(=O)[C@H](CC2CCCCC2)N(C)C(=O)[C@@H]2CCCN2C(=O)CN(C)C1=O [Compound 1784] (cyclo([Ac5c][NMeV][NMedβ3hAla][NMeA]I[Sar]P[NMeCha][dNMeA][hPhe(3-Cl-4-CF3)]P)) | 50 to 100 nM | 11 nM
9 | CC[C@H](C)[C@@H]1NC(=O)[C@H](COC2CC2)N(C)C(=O)C[C@@H](C(=O)N2CCCCC2)N(C)C(=O)[C@H](C2CCCCC2)N(C)C(=O)C2(CCCC2)NC(=O)[C@@H]2CCCN2C(=O)[C@H](CCc2ccc(C(F)(F)F)c(Cl)c2)NC(=O)CN(C)C(=O)[C@H](CC2CCCCC2)N(C)C(=O)CN(C)C(=O)CN(C)C1=O [Compound 1786] ([NMeS](Cyclopropyl)I[Sar][Sar][NMeCha][Sar][hPhe(3-Cl-4-CF3)]P[Ac5c][NMeChg][NMeD]-Piperidide; lactam N-11) | 50 to 100 nM | 0.72 nM
10 | CC[C@H](C)[C@@H]1NC(=O)[C@H](CC(C)C)N(C)C(=O)C[C@@H](C(=O)N2CCCC2)N(C)C(=O)[C@H]([C@@H](C)CC)N(C)C(=O)C2(CCCC2)NC(=O)[C@@H]2CCCN2C(=O)[C@H](CCc2ccc(C(F)(F)F)c(Cl)c2)NC(=O)CN(C)C(=O)[C@H](Cc2ccc(C)cc2)N(C)C(=O)CN(C)C(=O)CN(C)C1=O [Compound 1790] ([NMeL]I[Sar][Sar][NMePhe(4-Me)][Sar][hPhe(3-Cl-4-CF3)]P[Ac5c][NMeI][NMeD]-Pyrrolidide; lactam N-11) | 20 to 50 nM | 0.7 nM
11 | CC[C@H](C)[C@@H]1NC(=O)[C@H](C2CC2)N(C)C(=O)C[C@@H](C(=O)N2CCCCC2)N(C)C(=O)[C@H](C2CCCCC2)N(C)C(=O)C2(CCCC2)NC(=O)[C@@H]2CCCN2C(=O)[C@H](CCc2ccc(C(F)(F)F)c(Cl)c2)NC(=O)CN(C)C(=O)[C@H](CC2CCCCC2)N(C)C(=O)CN(C)C(=O)CN(C)C1=O [Compound 1796] ([NMeGly(cPr)]I[Sar][Sar][NMeCha][Sar][hPhe(3-Cl-4-CF3)]P[Ac5c][NMeChg][NMeD]-Piperidide; lactam N-11) | 100 to 500 nM | 0.76 nM
12 | CC(C)C[C@H]1C(=O)N[C@@H](C(C)C)C(=O)N(C)CC(=O)N(C)CC(=O)N(C)[C@@H](CC2CCCCC2)C(=O)N(C)CC(=O)N[C@@H](CCc2ccc(C(F)(F)F)c(Cl)c2)C(=O)N2CCC[C@H]2C(=O)NC2(CCCC2)C(=O)N(C)[C@@H](C2CCCCC2)C(=O)N(C)[C@H](C(=O)N2CCCCC2)CC(=O)N1C [Compound 1798] ([NMeL]V[Sar][Sar][NMeCha][Sar][hPhe(3-Cl-4-CF3)]P[Ac5c][NMeChg][NMeD]-Piperidide; lactam N-11) | 50 to 100 nM | 1 nM
13 | CC[C@H](C)[C@@H]1NC(=O)[C@H](CC(C)C)N(C)C(=O)C[C@@H](C(=O)N2CCCCC2)N(C)C(=O)[C@H](C(C)C)N(C)C(=O)C2(CCCC2)NC(=O)[C@@H]2CCCN2C(=O)[C@H](CCc2ccc(C(F)(F)F)c(Cl)c2)NC(=O)CN(C)C(=O)[C@H](CC(C)C)N(C)C(=O)[C@@H]2CCN2C(=O)[C@H](C)N(C)C1=O [Compound 1803] ([NMeL]I[NMeA][Aze][NMeL][Sar][hPhe(3-Cl-4-CF3)]P[Ac5c][NMeV][NMeD]-Piperidide; lactam N-11) | 100 to 500 nM | 5.3 nM
14 | CC[C@H](C)[C@@H]1NC(=O)[C@H](CC(C)C)N(C)C(=O)C[C@@H](C(=O)N2CCCCC2)N(C)C(=O)[C@H](C2CCCCC2)N(C)C(=O)C2(CCCC2)NC(=O)[C@@H]2CCCN2C(=O)[C@H](CCc2ccc(C(F)(F)F)c(Cl)c2)NC(=O)CN(C)C(=O)[C@H](Cc2ccc(C)cc2)N(C)C(=O)CN(C)C(=O)CN(C)C1=O [Compound 1804] ([NMeL]I[Sar][Sar][NMePhe(4-Me)][Sar][hPhe(3-Cl-4-CF3)]P[Ac5c][NMeChg][NMeD]-Piperidide; lactam N-11) | 50 to 100 nM | 0.51 nM
15 | CC[C@H](C)[C@@H]1NC(=O)[C@H](C(C)C)N(C)C(=O)C[C@@H](C(=O)N2CCCCC2)N(C)C(=O)[C@H](C2CCCCC2)N(C)C(=O)C2(CCCC2)NC(=O)[C@@H]2CCCN2C(=O)[C@H](CCc2ccc(C(F)(F)F)c(Cl)c2)NC(=O)CN(C)C(=O)[C@H](CC2CCCCC2)N(C)C(=O)CN(C)C(=O)CN(C)C1=O [Compound 1807] ([NMeV]I[Sar][Sar][NMeCha][Sar][hPhe(3-Cl-4-CF3)]P[Ac5c][NMeChg][NMeD]-Piperidide; lactam N-11) | 50 to 100 nM | 0.89 nM
16 | CC[C@H](C)[C@@H]1NC(=O)[C@H](CC(C)C)N(C)C(=O)C[C@@H](C(=O)N(C)C)N(C)C(=O)[C@H](C(C)C)N(C)C(=O)C2(CCCC2)NC(=O)[C@@H]2CCCN2C(=O)[C@H](CCc2ccc(C(F)(F)F)c(Cl)c2)NC(=O)CN(C)C(=O)[C@H](CC2CCCCC2)N(C)C(=O)CN(C)C(=O)CN(C)C1=O [Compound 1812] ([NMeL]I[Sar][Sar][NMeCha][Sar][hPhe(3-Cl-4-CF3)]P[Ac5c][NMeV][NMeD]-NMe2; lactam N-11) | 50 to 100 nM | 0.56 nM
17 | CC[C@H](C)[C@@H]1NC(=O)[C@H](CC(C)C)N(C)C(=O)C[C@@H](C(=O)N2CCCCC2)N(C)C(=O)[C@H](C2CCCCC2)N(C)C(=O)C2(CCCC2)NC(=O)[C@@H]2CCCN2C(=O)[C@H](CCc2ccc(C(F)(F)F)c(Cl)c2)NC(=O)CN(C)C(=O)[C@H](CC2CCC2)N(C)C(=O)CN(C)C(=O)CN(C)C1=O [Compound 1817] ([NMeL]I[Sar][Sar][NMeCba][Sar][hPhe(3-Cl-4-CF3)]P[Ac5c][NMeChg][NMeD]-Piperidide; lactam N-11) | 100 to 500 nM | 1.4 nM

— US12371454B2, “Cyclic peptide compound having Kras inhibitory action” (priority 2019, dated 2025)
